This note sets out measurements from patent US7919508B2, “3-piperidinylisochroman-5-ols as dopamine agonists” (Aventis Pharmaceuticals Inc., priority 2004, dated 2011).

Structures can show the parent of a compound that is named as a salt.

Experiment [1] addresses T1, human dopamine D1 receptor (Homo sapiens, UniProt P21728).
T1 construct: A 1.4 Kb Hind III to Xho I fragment was subcloned into the vector pMMLV; expressed in transfected cells; host or cells: CHO cells, clone CHO-D1M#9 (plasmid pHD1MMLV), membranes
The experiment is described as follows: [3H]-SCH-23390 binding to cloned human dopamine D1 receptors (CHO cell membranes). The settings on record: competitive binding, [3H]-SCH-23390, cloned human D1 in CHO membranes; read-out: D1 affinity Ki. How it is done: [^3H]-SCH-23390 Binding to Cloned Human Dopamine D1 Receptors
Determination of relative binding affinity of potential neuropsychiatric and other agents for the human dopamine D1 receptor.
The human D, cDNA was obtained from the laboratory of Dr. Marc Caron in the vector pCMV5. A 1.4 Kb Hind III to Xho I fragment was subcloned into the vector pMMLV. The plasmid pHD1MMLV was then sequenced completely. Transient transfections in COS-7 cells were performed and D1 specific binding was obtained. The construct pHD1MMLV was then transfected stably into CHO cells and 72 G418-resistant clones were isolated. High expressors were identified by mRNA dot blot analysis. Six high expressors were further characterized by binding and then clone CHO-D1M#9 was chosen for detailed pharmacological characterization. This clone was then grown in suspension culture for the purpose of obtaining enough protein to accommodate several months of screening.
B. Cell Culture Conditions
• 1. […] Cells are transferred to suspension culture when at least […] are available (this allows for 300,000 cells/ml in a 50 ml spinner flask; this is the ideal suspension density). Cells are removed from flasks with trypsin, spun down at 1000×G and resuspended the pellet in fresh medium: • 50% CHO-SFM-II+50% Ham's F12 w/10% FBS (final FBS conc. 5%)+400 μg/ml G418+1% P/S. • 3. After the transfer to suspension culture, growth is monitored and cell viability is assessed using trypan blue exclusion. Total and viable cell count on 5 sectors of the hemocytometer are recorded. When the viable cell density reaches 600,000 cell/ml, the volume is doubled. • 4. After 1 week of growth in the 50/50 medium, the cells are spun down and transferred to a new spinner flask and replaced with 75% CHO-SFM II/25% Ham's F12+10% FBS plus the pen-strep and G418. Thereafter every 3 days, the medium is replaced with new medium containing a decreasing amount of FBS as follows:
• 5. The final maintenance culturing medium is made up as follows: • A stock mixture of 10 ml of pen-strep, 0.5 ml of […] (active; final concentration: 200 μg/ml) G418 and 1 ml of FBS are mixed and filtered and refrigerated. A volume (11.5 ml) of this mixture is added to a freshly opened 1 L bottle of CHO-SFM II. C. Membrane Preparation
Cells are harvested into 250 ml centrifuge tubes and spun down at 1200×G. The medium is removed and 100 ml PBS (phosphate-buffered saline) is added to each centrifuge tube; cells are resuspended and spun down again. The PBS is removed and the final pellet is homogenized with a polytron on ice at a medium setting.
The membrane suspension is diluted in water and samples (10, 50 and 100 μl; q.s. to 100 μl with water) are diluted with 100 μl of 1% SDS. The sample is vortexed and allowed to stand for 5 min. Two aliquots each of the solubilized protein sample are placed in clean 13×100 test tubes for the assay. Instructions are followed as outlined in the BioRad DC protein determination kit (Catalog # 500-0112). OD readings that fall between 0.1-0.5 (mid-range of standard curve) should typically be used for calculations. Protein concentrations are calculated from a standard curve using bovine serum albumin as standard by linear regression and interpolation.
Following cell harvesting and protein determination, the homogenate is diluted with 10% DMSO to the correct volume based on Bmax and relative size of individual experiments to be conducted. The concentrated protein is stored in cryogenic vials in aliquots of 1-1.5 ml. Samples may be stored in −80° C. freezer or in liquid nitrogen.

In experiment [2] the target is human dopamine D2Long (D2L) receptors (Homo sapiens, UniProt P14416).
Sequence of human dopamine D2Long (D2L) receptors (P14416 whole entry): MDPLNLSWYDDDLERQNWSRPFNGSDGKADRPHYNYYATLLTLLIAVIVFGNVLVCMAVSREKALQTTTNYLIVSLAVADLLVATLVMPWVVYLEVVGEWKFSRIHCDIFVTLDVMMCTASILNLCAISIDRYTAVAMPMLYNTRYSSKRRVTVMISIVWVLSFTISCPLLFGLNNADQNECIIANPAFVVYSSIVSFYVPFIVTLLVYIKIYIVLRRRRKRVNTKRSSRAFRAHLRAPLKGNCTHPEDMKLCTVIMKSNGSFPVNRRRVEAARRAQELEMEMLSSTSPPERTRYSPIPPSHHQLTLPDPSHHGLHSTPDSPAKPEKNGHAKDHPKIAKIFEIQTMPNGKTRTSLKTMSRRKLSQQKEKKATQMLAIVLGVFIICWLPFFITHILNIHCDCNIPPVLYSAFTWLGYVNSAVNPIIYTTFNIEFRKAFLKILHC
Procedure: [N-Methyl-^3H]Spiroperidol Binding to Cloned Human Dopamine D2Long Receptors
This assay measures the in vitro activity of drugs on cloned human dopamine D2Long (D2L) receptors and predicts the direct dopamine-displacing properties of neuropsychiatric, cardiovascular and renal agents at human dopamine D2 receptors.
Cells were maintained in Ham's F12+10% Fetal Bovine Serum+Penicillin/Streptomycin (100 U/ml/100 μg/ml)+G418 (400 μg/ml) medium and were split using Trypsin-EDTA (1 ml/plate, room temperature for ˜2 min. or until cells have lifted off plates). • 2. […] Plates are incubated at 37° C.+5% CO2 for ˜3 days or until cells were confluent.
Cells are harvested by mechanical scraping, washed using PBS collected in 250 ml Corning polypropylene centrifuge tubes, spun down and resuspended in dH2O (final volume per harvest approximately 60 ml). Protein determination is made according to the method of Lowry (Biorad DC Assay Kit). Following the determination of the protein concentration, the protein is diluted into distilled water with 10% DMSO to the appropriate volume based on expression levels (Bmax). The concentrated protein is aliquoted into 1.5 ml screw top eppendorf tubes and placed into a −80° C. freezer.
Assay Requirement: 1 cryovial per two 96 well plates
0.5M Tris Wash Buffer, pH 7.7 • a) 44.4 g Tris HCl • 26.5 g Tris Base • q.s. to 1 Liter (0.5 M Tris buffer, pH 7.7 at 37° C.) • b) make a 1:10 dilution in distilled H2O (0.05 M. Tris buffer, pH 7.7) • 2. Tris Buffer containing physiological salts • a) Stock buffer • NaCl 7.014 g • KCl 0.372 g • CaCl2 0.222 g • MgCl2 0.204 g • q.s. To 100 ml with 0.5 M. Tris Buffer • b) Dilute 1:10 in distilled H2O • This yields 0.05 M. Tris HCl, pH 7.7, containing NaCl (120 mM), KCl (5 mM), CaCl2 (2 mM) and MgCl2 (1 mM) • Optional: add 0.1% ascorbic acid and check pH (in assays with compounds that may oxidize. • c) 1.0% polyethyleneimine stock in 0.5M Tris (reagent 1.a) • Dilute 1:10 in distilled H2O Binding Assay • 750 μl Tissue • 150 μl [^3H]NMSP • 100 μl vehicle (for total binding) or 30 μM (−)
eticlopride (for nonspecific binding) or appropriate drug concentration.
The 96-Well Packard Unifilters GF/B are incubated for >1 h at 25° C. in 0.1% polyethylenimine. The cold tissue is added last and mixed on a orbital shaker for a few seconds and is then incubated at 37° C. for 30 min in a shaking water bath. The assay is stopped by rapid filtration through Packard Unifilter plates. The filter membranes are then washed with 15 ml of ice-cold 0.05 M Tris buffer. The filters are then dried (˜15 min. under a heat lamp or incubated for 15 min. in a 60° C. oven) and a bottom seal is applied. Then 40 μl of Packard Microscint 20 scintillation cocktail are added and a permanent topseal (Type P) is applied and heat sealed. The plates are placed in a Packard Topcount.
Specific binding is defined as the difference between total binding and the binding in the presence of 3 μM S-(−)-eticlopride. Total binding is approximately 10% of the total added ligand. […] The percent inhibition at each drug concentration is the mean of duplicate determinations.

T1 sequence (P21728 whole entry, the tested form may be a part): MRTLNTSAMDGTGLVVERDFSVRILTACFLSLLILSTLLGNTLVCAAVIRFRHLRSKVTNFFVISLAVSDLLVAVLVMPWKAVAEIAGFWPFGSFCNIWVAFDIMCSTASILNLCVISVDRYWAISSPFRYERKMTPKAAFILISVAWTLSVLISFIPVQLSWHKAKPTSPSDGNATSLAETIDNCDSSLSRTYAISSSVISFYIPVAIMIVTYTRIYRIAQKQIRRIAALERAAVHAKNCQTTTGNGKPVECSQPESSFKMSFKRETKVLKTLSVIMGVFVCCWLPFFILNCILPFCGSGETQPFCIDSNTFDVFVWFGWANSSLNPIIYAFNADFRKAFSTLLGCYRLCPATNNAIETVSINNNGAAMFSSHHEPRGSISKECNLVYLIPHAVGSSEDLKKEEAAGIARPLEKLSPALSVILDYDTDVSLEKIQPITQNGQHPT

Take `Cc1ccc2c(c1O)C[C@@H](C1CCN(Cc3cc(F)cc(C(F)(F)F)c3)CC1)O[C@H]2CN` [Example 84, (1R,3S)-1-Aminomethyl-3-[1-(3-fluoro-5-trifluoromethyl-benzyl)-piperidin-4-yl]-6-methyl-isochroman-5-ol dihydrochloride]: the inhibition constant (Ki) in experiment [1] stood at 33 nM; in experiment [2], 450 nM.

As to `CNC[C@@H]1O[C@H](C2CCN(CC3CCCCC3)CC2)Cc2c1ccc(C)c2O` [Example 96, (1R,3S)-3-(1-Cyclohexylmethyl-piperidin-4-yl)-6-methyl-1-methylaminomethyl-isochroman-5-ol dihydrochloride], the Ki was found to be 265 nM in experiment [1] and 552 nM in experiment [2].

Take `Cc1ccc2c(c1O)C[C@@H](C1CCN(C(=O)OCc3ccccc3)CC1)O[C@H]2CN` [Example 122, 4-((1R,3S)-1-Aminomethyl-5-hydroxy-6-methyl-isochroman-3-yl)-piperidine-1-carboxylic acid benzyl ester hydrochloride]: the Ki in experiment [1] stood at 92 nM; in experiment [2], 751 nM.

Take `Cc1ccc2c(c1O)C[C@@H](C1CCN(C(=O)Nc3ccccc3O)CC1)O[C@H]2CN` [Example 127, 4-((1R,3S)-1-Aminomethyl-5-hydroxy-6-methyl-isochroman-3-yl)-piperidine-1-carboxylic acid (2-hydroxy-phenyl)-amide hydrochloride]: the inhibitory constant (Ki) was 105 nM in experiment [1] and at least 10000 nM in experiment [2].

As to `Cc1ccc2c(c1O)C[C@@H](C1CCN(C(=O)N(C)C)CC1)O[C@H]2CN` [Example 132, 4-((1R,3S)-1-Aminomethyl-5-hydroxy-6-methyl-isochroman-3-yl)-piperidine-1-carboxylic acid dimethylamide hydrochloride], the Ki was 256 nM in experiment [1] and at least 100000 nM in experiment [2].

For `Cc1ccc2c(c1O)C[C@@H](C1CCN(C(=O)N(C(C)C)C(C)C)CC1)O[C@H]2CN` [Example 133, 4-((1R,3S)-1-Aminomethyl-5-hydroxy-6-methyl-isochroman-3-yl)-piperidine-1-carboxylic acid diisopropylamide hydrochloride], the inhibition constant (Ki) in experiment [1] is 241 nM; in experiment [2], at least 100000 nM.

For `Cc1ccc2c(c1O)C[C@@H](C1CCN(C(=O)N3CCOCC3)CC1)O[C@H]2CN` [Example 134, [4-((1R,3S)-1-Aminomethyl-5-hydroxy-6-methyl-isochroman-3-yl)-piperidin-1-yl]-morpholin-4-yl-methanone hydrochloride], the Ki in experiment [1] is 240 nM; in experiment [2], at least 100000 nM.

For the compound `CCN(CC)C(=O)N1CCC([C@@H]2Cc3c(ccc(C)c3O)[C@H](CN)O2)CC1` [Example 136, 4-((1R,3S)-1-Aminomethyl-5-hydroxy-6-methyl-isochroman-3-yl)-piperidine-1-carboxylic acid diethylamide hydrochloride], the Ki was 162 nM in experiment [1] and at least 100000 nM in experiment [2].

With `Cc1ccc2c(c1O)C[C@@H](C1CCN(C(=O)N3c4ccccc4Sc4ccccc43)CC1)O[C@H]2CN` [Example 137, [4-((1R,3S)-1-Aminomethyl-5-hydroxy-6-methyl-isochroman-3-yl)-piperidin-1-yl]-phenothiazin-10-yl-methanone hydrochloride], the Ki is 412 nM in experiment [1] and 163 nM in experiment [2].

Turning to `Cc1ccc2c(c1O)C[C@@H](C1CCN(C(=O)N3CCCCC3)CC1)O[C@H]2CN` [Example 138, [4-((1R,3S)-1-Aminomethyl-5-hydroxy-6-methyl-isochroman-3-yl)-piperidin-1-yl]-piperidin-1-yl-methanone hydrochloride], the Ki in experiment [1] was 198 nM; in experiment [2], at least 100000 nM.

With `Cc1ccc2c(c1O)C[C@@H](C1CCN(S(=O)(=O)c3ccccc3)CC1)O[C@H]2CN` [Example 141, (1R,3S)-1-Aminomethyl-3-(1-benzenesulfonyl-piperidin-4-yl)-6-methyl-isochroman-5-ol hydrochloride], the inhibition constant (Ki) in experiment [1] is 193 nM; in experiment [2], at least 100000 nM.

Take `Cc1ccc2c(c1O)C[C@@H](C1CCN(S(=O)(=O)c3ccccc3C(F)(F)F)CC1)O[C@H]2CN` [Example 143, (1R,3S)-1-Aminomethyl-6-methyl-3-[1-(2-trifluoromethyl-benzenesulfonyl)-piperidin-4-yl]-isochroman-5-ol hydrochloride]: the results for the inhibitory constant (Ki) in experiment [1] and in experiment [2] were 167 nM and 777 nM, respectively.

As for `Cc1ccc2c(c1O)C[C@@H](C1CCN(S(=O)(=O)c3ccc(C(C)C)cc3)CC1)O[C@H]2CN` [Example 145, (1R,3S)-1-Aminomethyl-3-[1-(4-isopropyl-benzenesulfonyl)-piperidin-4-yl]-6-methyl-isochroman-5-ol hydrochloride], the values for the inhibition constant (Ki) in experiment [1] and in experiment [2] were 146 nM and 288 nM, respectively.

In the case of `Cc1ccc2c(c1O)C[C@@H](C1CCN(S(=O)(=O)c3ccc(Cl)cc3)CC1)O[C@H]2CN` [Example 148, (1R,3S)-1-Aminomethyl-3-[1-(4-chloro-benzenesulfonyl)-piperidin-4-yl]-6-methyl-isochroman-5-ol hydrochloride], the Ki in experiment [1] is 183 nM; in experiment [2] it was at least 100000 nM.

As for `Cc1ccc2c(c1O)C[C@@H](C1CCN(S(=O)(=O)c3ccc(Cl)cc3Cl)CC1)O[C@H]2CN` [Example 149, (1R,3S)-1-Aminomethyl-3-[1-(2,4-dichloro-benzenesulfonyl)-piperidin-4-yl]-6-methyl-isochroman-5-ol hydrochloride], the inhibitory constant (Ki) in experiment [1] was 213 nM; in experiment [2], 589 nM.

As to `Cc1ccc2c(c1O)C[C@@H](C1CCN(S(=O)(=O)c3ccc(Cl)c(Cl)c3)CC1)O[C@H]2CN` [Example 150, (1R,3S)-1-Aminomethyl-3-[1-(3,4-dichloro-benzenesulfonyl)-piperidin-4-yl]-6-methyl-isochroman-5-ol hydrochloride], the Ki was 256 nM in experiment [1] and at least 100000 nM in experiment [2].

Turning to `Cc1ccc2c(c1O)C[C@@H](C1CCN(S(=O)(=O)c3ccc(-c4ccccc4)cc3)CC1)O[C@H]2CN` [Example 152, (1R,3S)-1-Aminomethyl-3-[1-(biphenyl-4-sulfonyl)-piperidin-4-yl]-6-methyl-isochroman-5-ol hydrochloride], the Ki in experiment [1] was 169 nM; in experiment [2], at least 100000 nM.

Regarding `CCS(=O)(=O)N1CCC([C@@H]2Cc3c(ccc(C)c3O)[C@H](CN)O2)CC1` [Example 153, (1R,3S)-1-Aminomethyl-3-(1-ethanesulfonyl-piperidin-4-yl)-6-methyl-isochroman-5-ol hydrochloride], the results for the Ki in experiment [1] and in experiment [2] were 250 nM and at least 100000 nM, respectively.

As for `CCCCS(=O)(=O)N1CCC([C@@H]2Cc3c(ccc(C)c3O)[C@H](CN)O2)CC1` [Example 154, (1R,3S)-1-Aminomethyl-3-[1-(butane-1-sulfonyl)-piperidin-4-yl]-6-methyl-isochroman-5-ol hydrochloride], the inhibitory constant (Ki) in experiment [1] is 270 nM; in experiment [2] it was at least 100000 nM.

Take `Cc1ccc2c(c1O)C[C@@H](C1CCN(S(=O)(=O)C(C)C)CC1)O[C@H]2CN` [Example 155, (1R,3S)-1-Aminomethyl-6-methyl-3-[1-(Propane-2-sulfonyl)-piperidin-4-yl]-isochroman-5-ol hydrochloride]: the figures for the Ki in experiment [1] and in experiment [2] were 217 nM and at least 100000 nM, respectively.

Consider `CCCCCCCCS(=O)(=O)N1CCC([C@@H]2Cc3c(ccc(C)c3O)[C@H](CN)O2)CC1` [Example 156, (1R,3S)-1-Aminomethyl-6-methyl-3-[1-(octane-1-sulfonyl)-piperidin-4-yl]-isochroman-5-ol hydrochloride], for which the Ki in experiment [1] is 139 nM; in experiment [2], at least 100000 nM.

Broadly, the Ki is the dissociation constant of the complex between target and ligand, obtained from inhibition or displacement.
